Data published in ChEMBL document CHEMBL3593193, “Discovery of 3,6-dihydroimidazo[4,5-d]pyrrolo[2,3-b]pyridin-2(1H)-one derivatives as novel JAK inhibitors” (Bioorg Med Chem, 2015).

What was measured:
[1] = target: T1, Tyrosine-protein kinase JAK3 (Homo sapiens, UniProt P52333)
T1 sequence (P52333 whole entry): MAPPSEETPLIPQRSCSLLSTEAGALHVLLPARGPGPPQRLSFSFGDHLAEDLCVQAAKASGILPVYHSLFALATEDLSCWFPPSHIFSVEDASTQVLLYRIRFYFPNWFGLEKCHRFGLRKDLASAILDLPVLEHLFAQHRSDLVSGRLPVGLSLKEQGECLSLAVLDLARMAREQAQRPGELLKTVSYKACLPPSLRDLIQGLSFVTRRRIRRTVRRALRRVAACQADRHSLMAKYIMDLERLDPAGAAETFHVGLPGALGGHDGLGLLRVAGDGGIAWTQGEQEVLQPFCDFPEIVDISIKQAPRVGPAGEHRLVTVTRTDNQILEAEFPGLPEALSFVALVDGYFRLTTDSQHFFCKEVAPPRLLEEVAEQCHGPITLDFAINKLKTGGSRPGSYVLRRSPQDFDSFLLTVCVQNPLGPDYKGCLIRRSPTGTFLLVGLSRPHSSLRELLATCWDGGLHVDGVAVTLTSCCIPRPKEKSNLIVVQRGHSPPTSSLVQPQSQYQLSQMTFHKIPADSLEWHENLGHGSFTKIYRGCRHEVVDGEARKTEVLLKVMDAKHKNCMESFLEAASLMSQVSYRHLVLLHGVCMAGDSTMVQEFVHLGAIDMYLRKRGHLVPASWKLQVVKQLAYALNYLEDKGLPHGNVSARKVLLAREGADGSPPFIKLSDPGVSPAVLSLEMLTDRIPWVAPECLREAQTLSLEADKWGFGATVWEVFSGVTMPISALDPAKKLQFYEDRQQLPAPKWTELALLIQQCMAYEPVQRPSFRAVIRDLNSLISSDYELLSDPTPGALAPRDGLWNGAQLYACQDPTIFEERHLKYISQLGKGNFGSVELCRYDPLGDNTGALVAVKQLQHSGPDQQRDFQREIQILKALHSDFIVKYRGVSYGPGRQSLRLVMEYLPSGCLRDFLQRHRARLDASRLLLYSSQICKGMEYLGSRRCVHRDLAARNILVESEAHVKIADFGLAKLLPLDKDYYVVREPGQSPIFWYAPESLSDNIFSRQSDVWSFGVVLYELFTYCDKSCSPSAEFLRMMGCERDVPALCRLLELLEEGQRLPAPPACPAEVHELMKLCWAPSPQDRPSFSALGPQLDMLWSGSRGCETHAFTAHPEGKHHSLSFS
Description: Inhibition of human JAK3 kinase domain using biotin-Lyn-substrate-2 as substrate and ATP incubated for 1 hr by ELISA method

[2] = target: Tyrosine-protein kinase JAK2 (Homo sapiens, UniProt O60674)
Tyrosine-protein kinase JAK2, sequence (O60674 whole entry): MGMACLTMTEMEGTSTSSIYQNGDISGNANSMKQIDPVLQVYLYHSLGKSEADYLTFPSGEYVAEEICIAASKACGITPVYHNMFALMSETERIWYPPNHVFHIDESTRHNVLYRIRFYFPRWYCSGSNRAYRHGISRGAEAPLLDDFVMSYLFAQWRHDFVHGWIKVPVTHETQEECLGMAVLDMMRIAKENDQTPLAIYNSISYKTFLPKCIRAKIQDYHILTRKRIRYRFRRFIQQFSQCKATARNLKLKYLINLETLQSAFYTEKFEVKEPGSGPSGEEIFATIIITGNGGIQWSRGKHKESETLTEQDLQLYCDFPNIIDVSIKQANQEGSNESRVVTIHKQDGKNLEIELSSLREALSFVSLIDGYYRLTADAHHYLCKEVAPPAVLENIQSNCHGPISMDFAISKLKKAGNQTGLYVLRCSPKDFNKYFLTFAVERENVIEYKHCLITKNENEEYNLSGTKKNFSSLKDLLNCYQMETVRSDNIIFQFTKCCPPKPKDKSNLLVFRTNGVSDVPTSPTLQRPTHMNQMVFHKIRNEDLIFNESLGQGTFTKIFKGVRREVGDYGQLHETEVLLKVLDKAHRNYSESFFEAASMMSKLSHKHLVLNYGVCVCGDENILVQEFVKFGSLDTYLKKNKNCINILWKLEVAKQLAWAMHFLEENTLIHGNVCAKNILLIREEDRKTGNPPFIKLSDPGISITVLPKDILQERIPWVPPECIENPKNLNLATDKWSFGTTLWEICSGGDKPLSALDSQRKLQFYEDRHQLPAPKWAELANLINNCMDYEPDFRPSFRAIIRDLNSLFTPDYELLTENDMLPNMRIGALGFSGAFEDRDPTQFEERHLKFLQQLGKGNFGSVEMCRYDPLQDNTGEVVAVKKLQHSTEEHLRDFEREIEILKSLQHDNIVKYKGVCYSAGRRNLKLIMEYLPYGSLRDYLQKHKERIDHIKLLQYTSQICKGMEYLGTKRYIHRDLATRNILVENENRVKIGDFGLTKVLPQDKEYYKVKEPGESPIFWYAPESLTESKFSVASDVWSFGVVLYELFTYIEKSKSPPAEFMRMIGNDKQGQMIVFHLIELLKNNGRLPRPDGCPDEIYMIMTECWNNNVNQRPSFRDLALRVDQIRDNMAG
Description: Inhibition of human JAK2 kinase domain using biotin-Lyn-substrate-2 as substrate and ATP incubated for 1 hr by ELISA method

[3] = target: Tyrosine-protein kinase JAK1 (Homo sapiens, UniProt P23458)
Tyrosine-protein kinase JAK1, sequence (P23458 whole entry): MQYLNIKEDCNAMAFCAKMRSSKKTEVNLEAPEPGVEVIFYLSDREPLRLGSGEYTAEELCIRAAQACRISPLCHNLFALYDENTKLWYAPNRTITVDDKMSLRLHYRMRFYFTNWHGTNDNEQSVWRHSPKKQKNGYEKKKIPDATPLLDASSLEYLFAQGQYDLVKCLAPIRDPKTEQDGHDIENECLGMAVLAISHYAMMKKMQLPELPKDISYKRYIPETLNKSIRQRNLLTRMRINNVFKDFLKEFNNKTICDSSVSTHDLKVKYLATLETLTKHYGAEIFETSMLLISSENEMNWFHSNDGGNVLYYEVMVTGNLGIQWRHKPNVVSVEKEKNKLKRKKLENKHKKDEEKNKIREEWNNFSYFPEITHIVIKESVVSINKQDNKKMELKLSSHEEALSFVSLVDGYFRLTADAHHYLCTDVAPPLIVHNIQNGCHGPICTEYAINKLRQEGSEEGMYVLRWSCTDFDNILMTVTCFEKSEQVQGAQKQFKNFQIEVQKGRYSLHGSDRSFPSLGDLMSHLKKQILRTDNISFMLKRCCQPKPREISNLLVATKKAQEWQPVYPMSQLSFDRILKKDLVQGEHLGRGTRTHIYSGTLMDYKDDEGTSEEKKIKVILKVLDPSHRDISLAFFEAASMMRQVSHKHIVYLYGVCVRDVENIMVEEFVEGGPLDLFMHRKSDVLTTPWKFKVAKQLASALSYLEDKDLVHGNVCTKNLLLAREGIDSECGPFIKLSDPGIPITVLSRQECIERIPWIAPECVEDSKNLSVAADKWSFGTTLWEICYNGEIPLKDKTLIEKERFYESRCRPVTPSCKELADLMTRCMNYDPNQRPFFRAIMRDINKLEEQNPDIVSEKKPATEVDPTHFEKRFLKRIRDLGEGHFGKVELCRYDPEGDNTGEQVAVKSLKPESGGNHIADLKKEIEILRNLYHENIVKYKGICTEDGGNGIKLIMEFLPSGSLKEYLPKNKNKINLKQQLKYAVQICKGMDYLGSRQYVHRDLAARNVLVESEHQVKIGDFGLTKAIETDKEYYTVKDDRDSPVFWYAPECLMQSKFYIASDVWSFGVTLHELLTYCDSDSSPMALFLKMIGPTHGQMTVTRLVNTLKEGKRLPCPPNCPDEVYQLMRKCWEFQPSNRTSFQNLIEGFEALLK
Description: Inhibition of human JAK1 kinase domain using biotin-Lyn-substrate-2 as substrate and ATP incubated for 1 hr by ELISA method

in vitro = details: Sprague-Dawley, rat, liver microsomes
cells = details: Rattus norvegicus, Lewis, T-cell, 72 h
Description: Inhibition of JAK1/JAK3 in Lewis rat splenocytes assessed as reduction in IL2-induced T cell proliferation incubated for 3 days by alamar blue assay

CYP3A4 [4] = target: T2, CYP3A4 (Homo sapiens, UniProt P08684); experiment: Reversible inhibition of CYP3A4 in human liver microsomes assessed as remaining enzyme activity by measuring midazolam to 1'-hydroxymidazolam conversion at 5 uM pre-incubated for 30 mins before midazolam addition by LC-MS/MS method; assay type: ADME; details: probe midazolam (conversion to 1'-hydroxymidazolam), read-out: Activity
T2 sequence (P08684 whole entry): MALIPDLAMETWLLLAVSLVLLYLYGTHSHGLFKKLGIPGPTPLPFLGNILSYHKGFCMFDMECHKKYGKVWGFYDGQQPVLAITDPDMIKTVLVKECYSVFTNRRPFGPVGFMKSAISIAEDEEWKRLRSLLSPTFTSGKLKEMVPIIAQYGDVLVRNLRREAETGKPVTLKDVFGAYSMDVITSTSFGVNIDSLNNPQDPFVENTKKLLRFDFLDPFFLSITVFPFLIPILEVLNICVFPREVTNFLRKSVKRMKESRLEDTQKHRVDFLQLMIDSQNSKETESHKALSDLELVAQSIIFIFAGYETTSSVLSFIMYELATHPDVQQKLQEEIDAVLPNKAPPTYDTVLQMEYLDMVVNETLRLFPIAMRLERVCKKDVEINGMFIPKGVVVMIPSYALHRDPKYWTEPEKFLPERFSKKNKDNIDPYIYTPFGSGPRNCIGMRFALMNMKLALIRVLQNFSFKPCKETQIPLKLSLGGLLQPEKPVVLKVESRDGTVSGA

CYP3A4 [5] = target: T2, CYP3A4; experiment: Time dependent inhibition of CYP3A4 in human liver microsomes assessed as remaining enzyme activity by measuring midazolam to 1'-hydroxymidazolam conversion at 5 uM pre-incubated for 30 mins before midazolam addition by LC-MS/MS method; assay type: ADME; details: probe midazolam (conversion to 1'-hydroxymidazolam), read-out: Activity
Liver microsome = details: rat, microsomes, 0.5 h, 2 µM

Structure (SMILES)	IC50 [1]	IC50 [2]	IC50 [3]	CLint scaled at 0.5 h, 2 µM (in vitro)	IC50 (cells)	activity at 30 min, 5 µM (CYP3A4 [4])	activity at 30 min, 5 µM (CYP3A4 [5])	CLH (Liver microsome)
CN(c1ccnc2[nH]ccc12)C1CCCCC1	1100 nM	1800 nM	2900 nM	–	–	–	–	–
O=c1[nH]c2cnc3[nH]ccc3c2n1C1CCCC1	180 nM	97 nM	110 nM	–	–	–	–	–
C[C@@H]1CCCC[C@@H]1n1c(=O)[nH]c2cnc3[nH]ccc3c21	–	4.4 nM	14 nM	300 mL/min/kg	32 nM	95%	49%	–
CC1(C)CCCCC1n1c(=O)[nH]c2cnc3[nH]ccc3c21 (centres undefined)	69 nM	85 nM	90 nM	–	110 nM	–	–	–
O=c1[nH]c2cnc3[nH]ccc3c2n1C1CCOCC1	270 nM	–	520 nM	–	1400 nM	–	90%	Stable
O=c1[nH]c2cnc3[nH]ccc3c2n1C1CCNCC1	1200 nM	1300 nM	–	–	2800 nM	–	–	–
CS(=O)(=O)N1CCC(n2c(=O)[nH]c3cnc4[nH]ccc4c32)CC1	710 nM	140 nM	140 nM	–	–	–	–	–
CS(=O)(=O)N1CCC[C@H](n2c(=O)[nH]c3cnc4[nH]ccc4c32)C1	460 nM	850 nM	–	–	–	–	–	–

Further molecules by falling IC50 [1], results first:

IC50 [1]	IC50 [2]	IC50 [3]	CLint scaled at 0.5 h, 2 µM (in vitro)	IC50 (cells)	activity at 30 min, 5 µM (CYP3A4 [4])	activity at 30 min, 5 µM (CYP3A4 [5])	CLH (Liver microsome)	Structure (SMILES)
63 nM	82 nM	230 nM	–	1700 nM	–	–	–	CS(=O)(=O)N1CCC[C@@H](n2c(=O)[nH]c3cnc4[nH]ccc4c32)C1
60 nM	88 nM	1000 nM	802 mL/min/kg	860 nM	–	–	–	O=c1[nH]c2cnc3[nH]ccc3c2n1CC1CCCCC1
54 nM	43 nM	79 nM	153 mL/min/kg	160 nM	–	–	–	O=c1[nH]c2cnc3[nH]ccc3c2n1C1CCCCC1
42 nM	23 nM	24 nM	–	120 nM	–	–	–	CC1CCC(n2c(=O)[nH]c3cnc4[nH]ccc4c32)CC1 (centres undefined)
28 nM	17 nM	20 nM	–	310 nM	–	–	–	N#CCC(=O)N1CCC[C@@H](n2c(=O)[nH]c3cnc4[nH]ccc4c32)C1
27 nM	17 nM	28 nM	–	110 nM	–	–	–	C[C@H]1CCCC[C@H]1n1c(=O)[nH]c2cnc3[nH]ccc3c21
22 nM	23 nM	30 nM	272 mL/min/kg	74 nM	–	–	–	O=c1[nH]c2cnc3[nH]ccc3c2n1C1CCCCCC1
21 nM	23 nM	430 nM	–	1000 nM	–	–	–	CC1CCCC(n2c(=O)[nH]c3cnc4[nH]ccc4c32)C1 (centres undefined)
5 nM	7.3 nM	29 nM	–	158 nM	–	–	–	C[C@@H]1CCN(C(=O)CC#N)C[C@@H]1n1c(=O)n(C)c2cnc3[nH]ccc3c21 (racemic)
3 nM	3.6 nM	18 nM	> 1000 mL/min/kg	36 nM	–	–	–	CC[C@@H]1CCCC[C@@H]1n1c(=O)[nH]c2cnc3[nH]ccc3c21
1.1 nM	2.6 nM	1.5 nM	–	36 nM	–	86%	Stable	C[C@@H]1CCN(C(=O)CC#N)C[C@@H]1n1c(=O)[nH]c2cnc3[nH]ccc3c21 (racemic)
